Biological target: T1, CYP11A1 (Homo sapiens, UniProt P05108)
T1 construct: human H295R adrenocortical carcinoma cell line was used as source of enzyme; endogenous in cells; host or cells: H295R human adrenocortical carcinoma cells
T1 sequence (P05108 40-521): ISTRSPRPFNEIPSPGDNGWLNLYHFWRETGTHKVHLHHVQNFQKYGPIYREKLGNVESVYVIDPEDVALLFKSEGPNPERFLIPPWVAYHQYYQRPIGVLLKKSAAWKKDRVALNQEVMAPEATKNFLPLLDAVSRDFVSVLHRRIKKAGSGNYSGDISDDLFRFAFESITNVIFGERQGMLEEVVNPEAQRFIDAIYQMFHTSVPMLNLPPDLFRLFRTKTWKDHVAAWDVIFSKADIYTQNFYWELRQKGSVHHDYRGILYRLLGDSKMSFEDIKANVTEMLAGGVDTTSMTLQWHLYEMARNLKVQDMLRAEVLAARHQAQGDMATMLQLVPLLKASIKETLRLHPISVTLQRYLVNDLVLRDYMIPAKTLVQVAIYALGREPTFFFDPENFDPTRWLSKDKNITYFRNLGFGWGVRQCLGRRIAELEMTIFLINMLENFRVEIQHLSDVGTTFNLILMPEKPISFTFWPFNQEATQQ
Test: CYP11A1 inhibition: modified isocaproic acid release assay (IARA) in H295R cells
Format: cell-based
Details: human H295R adrenocortical carcinoma cells treated three days, 3 nM [24,25-3H]-labelled cholesterol, 1% DMSO, 10 concentrations in duplicates; read-out: IC50 of the test compounds on CYP11A1 inhibition
Summary of the method: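 H295R adrenocortical cells treated three days with test compounds at 10 concentrations in duplicate plus 3 nM [24,25-3H]-cholesterol, 1% DMSO final. Released radiolabelled isocaproic acid measured by scintillation counting after dextran-coated charcoal extraction; IC50 determined.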

Row | SMILES | IC50 [nM]
1 | O=C(COc1coc(CN2Cc3ccccc3C2)cc1=O)N1CCN(S(=O)(=O)c2ccccc2)CC1 [Compound 156, 2-(Isoindolin-2-ylmethyl)-5-(2-oxo-2-(4-(phenylsulfonyl)piperazin-1-yl)ethoxy)-4H-pyran-4-one] | 301 to 2000
2 | Cc1ccc(S(=O)(=O)N2CCN(C(=O)COc3coc(CN4Cc5ccccc5C4)cc3=O)CC2)cc1 [Compound 157, 2-(Isoindolin-2-ylmethyl)-5-(2-oxo-2-(4-tosylpiperazin-1-yl)ethoxy)-4H-pyran-4-one] | 301 to 2000
3 | O=C(c1ccc(COc2coc(CN3Cc4ccccc4C3)cc2=O)cc1)N1CC(F)(F)C1 [Compound 158, 5-((4-(3,3-Difluoroazetidine-1-carbonyl)benzyl)oxy)-2-(isoindolin-2-ylmethyl)-4H-pyran-4-one] | 150 to 300
4 | COCc1cccnc1N1CCN(C(=O)COc2coc(CN3Cc4ccccc4C3)cc2=O)CC1 [Compound 159, 2-(Isoindolin-2-ylmethyl)-5-(2-(4-(3-(methoxymethyl)pyridin-2-yl)piperazin-1-yl)-2-oxoethoxy)-4H-pyran-4-one] | 301 to 2000
5 | O=C(c1ccc(COc2coc(CN3Cc4ccccc4C3)cc2=O)cc1)N1CCCC(O)C1 (stereo not drawn) [Compound 160, 5-((4-(3-Hydroxypiperidine-1-carbonyl)benzyl)oxy)-2-(isoindolin-2-ylmethyl)-4H-pyran-4-one] | 301 to 2000
6 | O=C(c1ccc(COc2coc(CN3Cc4ccc(F)cc4C3)cc2=O)cc1)N1CC(F)(F)C1 [Compound 161, 5-((4-(3,3-Difluoroazetidine-1-carbonyl)benzyl)oxy)-2-((5-fluoroisoindolin-2-yl)methyl)-4H-pyran-4-one] | 150 to 300

Next, values leading:

Row | IC50 [nM] | SMILES
7 | < 150 | COc1ccc2c(c1)CN(Cc1cc(=O)c(OCc3ccc(C(=O)N4CC(F)(F)C4)cc3)co1)C2 [Compound 162, 5-((4-(3,3-Difluoroazetidine-1-carbonyl)benzyl)oxy)-2-((5-methoxyisoindolin-2-yl)methyl)-4H-pyran-4-one]
8 | 150 to 300 | O=C(c1ccc(COc2coc(CN3Cc4ccc(Cl)cc4C3)cc2=O)cc1)N1CC(F)(F)C1 [Compound 163, 2-((5-Chloroisoindolin-2-yl)methyl)-5-((4-(3,3-difluoroazetidine-1-carbonyl)-benzyl)oxy)-4H-pyran-4-one]
9 | 150 to 300 | O=c1cc(CN2Cc3ccccc3C2)occ1OCc1ccc(-c2ccccc2)cc1 [Compound 164, 5-([1,1′-Biphenyl]-4-ylmethoxy)-2-(isoindolin-2-ylmethyl)-4H-pyran-4-one]
10 | 150 to 300 | O=c1cc(CN2Cc3ccccc3C2)occ1OCc1ccc(-c2ccccn2)cc1 [Compound 165, 2-(Isoindolin-2-ylmethyl)-5-((4-(pyridin-2-yl)benzyl)oxy)-4H-pyran-4-one]
11 | 301 to 2000 | CCS(=N)(=O)c1ccc(COc2coc(CN3CCc4ccccc4C3)cc2=O)cc1 (stereo not drawn) [Compound 166, 2-((3,4-Dihydroisoquinolin-2(1H)-yl)methyl)-5-((4-(ethylsulfonimidoyl)-benzyl)oxy)-4H-pyran-4-one]
12 | 150 to 300 | CCS(=N)(=O)c1ccc(COc2coc(CN3Cc4ccc([N+](=O)[O-])cc4C3)cc2=O)cc1 (stereo not drawn) [Compound 168, 5-((4-(Ethylsulfonimidoyl)benzyl)oxy)-2-((5-nitroisoindolin-2-yl)methyl)-4H-pyran-4-one]
13 | 150 to 300 | CCCCNC(=O)c1ccc(COc2coc(CN3Cc4ccccc4C3)cc2=O)cc1 [Compound 169, N-Butyl-4-(((6-(isoindolin-2-ylmethyl)-4-oxo-4H-pyran-3-yl)oxy)methyl)-benzamide]
14 | 301 to 2000 | CN(C)C(=O)c1ccc(COc2coc(CN3Cc4ccccc4C3)cc2=O)nc1 [Compound 170, 6-(((6-(Isoindolin-2-ylmethyl)-4-oxo-4H-pyran-3-yl)oxy)methyl)-N,N-dimethyl-nicotinamide]
15 | 301 to 2000 | NC(=O)c1ccc(COc2coc(CN3Cc4ccccc4C3)cc2=O)cc1F [Compound 171, 2-Fluoro-4-(((6-(isoindolin-2-ylmethyl)-4-oxo-4H-pyran-3-yl)oxy)methyl)-benzamide]

From US11098032B2, “Pyran dervatives as CYP11A1 (cytochrome P450 monooxygenase 11A1) inhibitors” (ORION CORPORATION, priority 2016, dated 2021)
